Source: US20250122581A1, “TUMOR AND METASTASIZING MARKER” (UNIVERSITAET ZU KOELN, priority 2017, published 2025)

Experiments:
[1] = test system: Vim3; test: Western blot with densitometry of Vim3 in total cell extract of stimulated MCF-7; type: cell-based; settings: combined Tam plus ET-1 pretreatment versus ET-1 alone, p<0.001
Method: WB with 20 μg non-precipitated total cell extract of stimulated MCF-7. The corresponding densitometric analysis of the present bands of a protein analysis on the WB membrane where the intense band of Vim3 (47 kDa) is striking as compared to the very faint band of GAPDH in the same sample is shown with ImageJ, where the background and the control had been subtracted.
Furthermore, the effect of Tam was studied with regard to its translational capacity for Vim3 after a combined Tam plus ET-1 pretreatment versus ET-1 alone. […] Tam upregulates Vim3.

[2] = test system: Vim3; test: Immunohistochemistry of Vim3 in breast cancer specimens and metastases after tamoxifen treatment; type: in vivo, human
Method: (§1) The dependency of the overexpression of Vim3 due to ET-1 presence and after tamoxifen treatment was shown in cell culture experiments and analyzed via Western blot. The expression of Vim3and ET-1 was analyzed in paraffin-embedded tissue samples of patients with metastatic breast cancers after tamoxifen treatment. MCF-7 cells were cultured under normal conditions and treated with the mentioned substances. Tamoxifen treatment was performed 1 hour prior ET-1 or β-estradiol treatment. Nuclear extracts were isolated and analyzed via Western blot under standard conditions. A Proximity Ligation Assay (PLA) assay was performed according to the manufacturer's protocol. From cells after treatment, the mRNA was isolated and qRT-PCR was performed. Immunohistochemistry was performed according to standardized conditions.
Vim3 Expression in Invasive Ductal Breast Carcinoma, and Its Metastases From the pre-evaluation of breast cancer specimen via tissue-microarray it was known that ET-1 and Vim3 staining could be detected in tumor cells, while vimentin full length was only positive in the interstitial tissue. To analyze the expression of the newly described target gene Vim3 in more detail, its expression was investigated in […] biopsies and their respective resection specimens of breast cancer cases. […] In each biopsy, Vim3 was detected, either in nuclear (20/25; strong expression: 3+) and/or diffuse cytoplasmic (25/25) localization. After Tam treatment, seventeen respective resection specimens were still diffusely positive for Vim3, now mainly in a cytoplasmic localization (12/17), with nuclear localization additionally found in 5 specimens (5/17). In 4 cases, lymph node but no other metastases were reported (4/28). In contrast, 7 cases developed organ metastases (7/28), of which 3 had additional lymph node metastases.
The expression of Vim3 and ERB was investigated in resection specimens and their metastases. In a set of 8 cases positive for ERa after tam pretreatment, it was found again a diffuse cytoplasmic expression of Vim3. In addition, in […] metastases (pleura 2×, skin 2×, bone 3×, uterus 1×, liver 1×, soft tissue 1x) Vim3 was also expressed (cytoplasm: 12/12; additional nuclear expression 5/12). In 7 of the 12 metastases, a 3+ nuclear expression for ERB was found, which was in all investigated cases accompanied by Vim3 expression.

[3] = test system: ET-1; test: Western blot of nuclear extracts of treated MCF-7 breast cancer cells; type: cell-based; settings: nuclear extracts from breast cancer cells after Tamoxifen treatment
Method: as §1

[4] = test system: Vim3; test: Vim3 expression analysis by qRT-PCR in treated MCF-7 cells; type: cell-based; settings: combined pretreatment with tamoxifen and β-estradiol/ET-1, p<0.01
Text: FIG. 25A-FIG. 25C show Vim3 expression analysis of treated MX-1 (FIG. 25A; FIG. 25B) and MCF-7 (FIG. 25C) cells by qRT-PCR analysis. […] In both diagrams the increase in Vim3 expression up to ca 700 RFU upon a combinational stimulation with Tam is decisive. Data shown is derived from quadruplicates from an independent experiment. *P<0.05, **P<0.01 and ***P<0.001.
as §1

[5] = test system: Vim3; test: Vim3 expression analysis by qRT-PCR in treated MX-1 cells; type: cell-based; settings: combinational stimulation with Tam
Method: MCF-7 cells were cultured under normal conditions and treated with the mentioned substances. Tamoxifen treatment was performed 1 hour prior ET-1 or β-estradiol treatment. […] From cells after treatment, the mRNA was isolated and qRT-PCR was performed.

[6] = test system: Vimentin 3; test: Cell culture experiments after ET-1 treatment, Western blot; type: cell-based; settings: cell culture (DU145)
Method: Furthermore, cell culture experiments were conducted after ET-1 treatment over different time points and analyzed via Western blot the expression of the different proteins mentioned above. For the ET-1 ELISA and Vim3 ELISA 100 μl of serum was used. DU145 cells were cultured under normal conditions and treated with the substances mentioned. Cells were scratched before treatment. The ET-receptors were blocked 1 h before ET-1 stimulation. Immunofluorescence was performed on paraffin-embedded prostate cancer samples. This immunofluorescence has been carried out as described in Example 1 above. In addition to Vim3-specific antibodies, also Atg7- and pg3-specific primary antibodies have been used.

[7] = breast cancer resection specimens, positive/total

| Compound | formation of Vim3 protein (Western blot densitometry) [1] | mastectomies with cytoplasmic Vim3 staining after Tam ([2]; biopsies before Tam: nuclear positivity 19/21) | resection specimens with additional nuclear Vim3 localization after Tam treatment [2, 7] | resection specimens with cytoplasmic Vim3 localization after Tam treatment [2, 7] | Vim3 level in tamoxifen-treated tumors and metastases ([2]; patients with metastatic breast cancers after tamoxifen treatment) | ET-1 signal in the nuclear fraction [3] | ET-1 signal in the nuclear fraction ([3]; listed as Tamoxifen) | mRNA Vim3 expression [4] | Vim3 expression (qRT-PCR) [5] [RFU] | Vimentin 3 production after ET-1 treatment [6] |
| --- | --- | --- | --- | --- | --- | --- | --- | --- | --- | --- |
| CC/C(=C(\c1ccccc1)c1ccc(OCCN(C)C)cc1)c1ccccc1 [tamoxifen] | highly statistically significant induced formation of Vim3 | 13/17 | 5/17 | 12/17 | an increase of Vim3 was found in both, the tumor as well as the metastases | ET-1 expression is triggered | significant upregulation of the ET-1 signal in the nuclear fraction | clear increase in mRNA Vim3 expression | ~700 |  |
| CC[C@H](C)[C@H](NC(=O)[C@H](CC(=O)O)NC(=O)[C@H](CC(C)C)NC(=O)[C@H](Cc1c[nH]cn1)NC(=O)[C@@H]1CSSC[C@H](N)C(=O)N[C@@H](CO)C(=O)N[C@H]2CSSC[C@H](NC(=O)[C@H](CCC(=O)O)NC(=O)[C@H](CCCCN)NC(=O)[C@H](CC(=O)O)NC(=O)[C@H](CCSC)NC(=O)[C@H](CC(C)C)NC(=O)[C@H](CO)NC(=O)[C@H](CO)NC2=O)C(=O)N[C@@H](C(C)C)C(=O)N[C@@H](Cc2ccc(O)cc2)C(=O)N[C@@H](Cc2ccccc2)C(=O)N1)C(=O)N[C@H](C(=O)N[C@@H](Cc1c[nH]c2ccccc12)C(=O)O)[C@@H](C)CC [ET-1, Endothelin-1] |  |  |  |  |  |  |  |  |  | produce more Vimentin 3 |
